Measurements as given in patent US6214859A, “Ethylamine derivatives” (Fujimoto Brothers Co., Ltd., priority 1997, dated 2001).

How the values were obtained:
[1] = test system: rats reduced learning ability by tetrabenazine; assay: Conditioned avoidance task in the shuttle box (tetrabenazine-treated rats); type: in vivo, rat; conditions: tetrabenazine 1 mg/kg s.c., significance and direction
Procedure, shortened: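 Male and female rats (200–220 g) were trained in a shuttle box (light/buzzer conditioned stimulus, 100 trials/day for 5 days). Tetrabenazine 1 mg/kg s.c. was given 1 h before testing, with compound at 1, 2, 2.5 or 5 mg/kg s.c. given together with tetrabenazine. CARs, EFs and IRs were counted automatically and analysed by multi-way ANOVA.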

[2] = test system: dopamine release, striatum; assay: Release of biogenic amines from brain tissue: dopamine, striatum; type: in vivo, Wistar rats
[3] = test system: dopamine release, substantia nigra; assay: Release of biogenic amines from brain tissue: dopamine, substantia nigra; type: in vivo, Wistar rats
[4] = test system: dopamine release, tuberculum olfactorium; assay: Release of biogenic amines from brain tissue: dopamine, tuberculum olfactorium; type: in vivo, Wistar rats
[5] = test system: noradrenaline release, locus coeruleus; assay: Release of biogenic amines from brain tissue: noradrenaline, locus coeruleus; type: in vivo, Wistar rats
serotonin release, raphe = assay: Release of biogenic amines from brain tissue: serotonin, raphe; type: in vivo, Wistar rats
mice = assay: Toxicity test in mice in the single administration; type: in vivo, mouse; conditions: 50 mg/kg s.c., two weeks
Experimental: After the compounds of Examples 3, 25, 27 and 28 were administered subcutanously to mice, general symptoms of the mice were observed every day for two weeks.

## CCCNC(CCC)Cc1ccc2ccccc2c1.Cl (stereo not drawn) [Compound No. 3, 1-(2-Naphthyl)-2-propylaminopentane Hydrochloride]
[1]; 1 mg/kg s.c.
  Escape Failures (EFs): **** .dwnarw.
[1]; 1 mg/kg s.c., Hydrochloride
  Condition Avoidance Reflex (CARs): **** .Arrow-up bold.
[1]; 2 mg/kg s.c.
  Condition Avoidance Reflex (CARs): **** .Arrow-up bold.
  Escape Failures (EFs): **** .dwnarw.
[1]; 2.5 mg/kg s.c.
  Condition Avoidance Reflex (CARs): **** .Arrow-up bold.
  Escape Failures (EFs): *** .dwnarw.
  Intersignal Reactions (IRs): * .dwnarw.
[1]; 5 mg/kg s.c.
  Condition Avoidance Reflex (CARs): **** .Arrow-up bold.
  Escape Failures (EFs): **** .dwnarw.
[2]; 0.25 mg/kg s.c.
  Release of dopamine, striatum: 3.4 ± 0.03 nmol/g tissue, for 20 min
[2]; 1.00 mg/kg s.c., Hydrochloride
  Release of dopamine, striatum: 3.9 ± 0.12 nmol/g tissue, for 20 min
[2]; 5.00 mg/kg s.c.
  Release of dopamine, striatum: 3.8 ± 0.04 nmol/g tissue, for 20 min
[3]; 0.25 mg/kg s.c.
  Release of dopamine, substantia nigra: 4.9 ± 0.07 nmol/g tissue, for 20 min
[3]; 1.00 mg/kg s.c., Hydrochloride
  Release of dopamine, substantia nigra: 4.5 ± 0.07 nmol/g tissue, for 20 min
[3]; 5.00 mg/kg s.c.
  Release of dopamine, substantia nigra: 9.0 ± 0.50 nmol/g tissue, for 20 min
[4]; 0.25 mg/kg s.c.
  Release of dopamine, tuberculum olfactorium: 4.3 ± 0.09 nmol/g tissue, for 20 min
[4]; 1.00 mg/kg s.c., Hydrochloride
  Release of dopamine, tuberculum olfactorium: 5.2 ± 0.12 nmol/g tissue, for 20 min
[4]; 5.00 mg/kg s.c.
  Release of dopamine, tuberculum olfactorium: 5.1 ± 0.39 nmol/g tissue, for 20 min
[5]; 0.25 mg/kg s.c.
  Release of noradrenaline, locus coeruleus: 4.4 ± 0.10 nmol/g tissue, for 20 min
[5]; 1.00 mg/kg s.c., Hydrochloride
  Release of noradrenaline, locus coeruleus: 2.6 ± 0.10 nmol/g tissue, for 20 min
[5]; 5.00 mg/kg s.c.
  Release of noradrenaline, locus coeruleus: 2.2 ± 0.11 nmol/g tissue, for 20 min
Serotonin release, raphe; 0.25 mg/kg s.c.
  Release of serotonin, raphe: 0.958 ± 0.03 nmol/g tissue, for 20 min
Serotonin release, raphe; 5.00 mg/kg s.c.
  Release of serotonin, raphe: 1.215 ± 0.14 nmol/g tissue, for 20 min
mice
  survival: all the mice survived
